Experimental data taken from PMC11342919 (RSC Advances, 2024).

How the values were obtained:
[1] = after 2 h
M^pro = conditions: at 100 μM; cited from earlier work

| SMILES | starting material consumed by cysteine [1] | inhibition of M^pro (M^pro) |
| --- | --- | --- |
| CCCCCCNC(=O)n1cc(F)c(=O)[nH]c1=O [Carmofur] | 75% | – |
| C=C(CC)C(=O)c1ccc(OCC(=O)O)c(Cl)c1Cl [EA, ethacrynic acid] | – | approximately 20% |
